This test deals with Plasmodium berghei. Description: Luciferase/luciferin-expressing antifolate-resistant parasites were used to infect a culture of HepG2 cells that were pre-incubated with compounds. Infected hepatocytes emit light due to the luciferase reaction. Assay results are presented as the percent inhibition of light emission compared to control. […]. In kind it is functional. To be noted: sporozoite; for IC90: read-out: LUCIFERASE INFECTION ASSAY - IC90.

Where [1] appears, read: read-out: LUCIFERASE INFECTION ASSAY - IC50.

With `CC(C)C(Nc1ccc(C(F)(F)F)cc1Cl)C(=O)Nc1nc(-c2ccc(F)cc2)cs1` (stereo not given), the IC90 (commonly the point of the concentration-response curve where the effect stands at 90%) was 5.28 µM. Further, the IC50 (usually the concentration needed to halve the response being measured) (HEPG2TOX_HILL_SLOPE 19.1, HEPG2TOX_R_SQUARED 0.637, PBLUC_HILL_SLOPE 12.2, PBLUC_R_SQUARED 0.325, read-out: LUCIFERASE INFECTION ASSAY - IC50) came to 4.41 µM.

For the molecule `CCCNC(=O)c1c(NC(=O)c2cc(F)cc(F)c2)nc2ccccn12`, the IC90 stood at 2.45 µM. Under “FFLUC_HILL_SLOPE 41.4, FFLUC_R_SQUARED 0.343, HEPG2TOX_HILL_SLOPE 1.12, HEPG2TOX_R_SQUARED 0.682, PBLUC_HILL_SLOPE 5.41, PBLUC_R_SQUARED 0.415, read-out: LUCIFERASE INFECTION ASSAY - IC50”, the IC50 worked out at 1.63 µM.

For `N#CC(C#N)C=Nc1cc(C(F)(F)F)ccc1N1CCCC1`, the IC90 was > 10.8 µM. Further, the concentration for half-maximal inhibition (IC50) under setting [1] is > 10.8 µM.

In the case of `Cc1ccc(C(C)(C)C)cc1S(=O)(=O)Nc1ccc(C(=O)OC(C)c2nc(=O)c3c(C)c(C)sc3[nH]2)cc1` (stereo not given), the IC90 was > 10 µM. Also, the IC50 under setting [1] is > 10 µM.

Turning to `CC(C)CCn1c(Sc2ccc3nnnn3n2)nc2scc(-c3cccs3)c2c1=O`, the IC90 is > 10 µM. Besides, the IC50 under setting [1] was > 10 µM.

For `COc1cccc(Nc2nccc3[nH]c(-c4cccc(F)c4)cc23)c1`, the IC90 worked out at 2.27 µM. Further, the IC50 (HEPG2TOX_HILL_SLOPE 2.76, HEPG2TOX_R_SQUARED 0.828, PBLUC_HILL_SLOPE 2.74, PBLUC_R_SQUARED 0.773, read-out: LUCIFERASE INFECTION ASSAY - IC50) was 1.02 µM.

On to `Cc1cc(C(=O)Cn2c(Cl)nc3c2c(=O)n(C)c(=O)n3C)c(C)n1-c1ccc2c(c1)OCCO2`, for which the IC90 is > 10 µM. In addition, the IC50 (HEPG2TOX_HILL_SLOPE 4.07, HEPG2TOX_R_SQUARED 0.354, PBLUC_HILL_SLOPE 24.1, PBLUC_R_SQUARED 0.351, read-out: LUCIFERASE INFECTION ASSAY - IC50) is 9.79 µM.

On to `NC(=O)c1ccsc1NC(=O)COC(=O)c1ccc2c(c1Cl)C(=O)c1ccccc1C2=O`, for which the IC90 is > 10 µM. Moreover, the IC50 under setting [1] was > 10 µM.

Turning to `O=C1CC(c2ccccc2Br)c2c(ccc3ccccc23)N1` (stereo not given), the IC90 is > 9.37 µM. For the same molecule, where the note is “HEPG2TOX_HILL_SLOPE 2.07, HEPG2TOX_R_SQUARED 0.801, PBLUC_HILL_SLOPE 1.69, PBLUC_R_SQUARED 0.513, read-out: LUCIFERASE INFECTION ASSAY - IC50”, the IC50 came out at 4.97 µM.

As to `O=C(Nc1ncccc1OCc1ccc(Cl)c(Cl)c1)c1cc(Cl)cc(Cl)c1`, the IC90 was > 7.46 µM. The IC50 (FFLUC_HILL_SLOPE 11.8, FFLUC_R_SQUARED 0.202, PBLUC_HILL_SLOPE 16.7, PBLUC_R_SQUARED 0.189, read-out: LUCIFERASE INFECTION ASSAY - IC50) was > 7.46 µM.

For `N#Cc1c(N2CCCC(O)C2)nc(N)c2c(N)nc3c(c12)CC(=O)N3C12CC3CC(CC(C3)C1)C2` (stereo not given), the IC90 was > 10 µM. Under “HEPG2TOX_HILL_SLOPE 8.91, HEPG2TOX_R_SQUARED 0.422, PBLUC_HILL_SLOPE 4.43, PBLUC_R_SQUARED 0.134, read-out: LUCIFERASE INFECTION ASSAY - IC50”, the IC50 is 6.8 µM.

For `CCN1CCc2nc(NC(=O)c3ccccc3Nc3ccc(F)cc3)sc2C1`, the IC90 amounted to 8.04 µM. The IC50 (PBLUC_HILL_SLOPE 2.71, PBLUC_R_SQUARED 0.663, read-out: LUCIFERASE INFECTION ASSAY - IC50) was 3.58 µM.

In the case of `Cc1ccc(CSc2n[nH]c(=O)n2C2CC3C=CC2C3)cc1` (stereo not given), the IC90 was > 10.5 µM. In addition, the IC50 under setting [1] is > 10.5 µM.

`O=C(Nc1ccc(OC(F)(F)F)cc1)N1CCc2nc(NCc3cccc(Oc4ccccc4)c3)ncc2C1`: the IC90 is > 6.16 µM. For the same molecule, the half-inhibitory concentration (IC50) under setting [1] is > 6.16 µM.

Regarding `Cc1noc(C)c1COc1cccc(C(=O)OCC(=O)N2CC(=O)Nc3ccccc32)c1`, the IC90 is > 10 µM. Moreover, the IC50 (HEPG2TOX_HILL_SLOPE 1.25, HEPG2TOX_R_SQUARED 0.939, PBLUC_HILL_SLOPE 2.73, PBLUC_R_SQUARED 0.35, read-out: LUCIFERASE INFECTION ASSAY - IC50) came to 6.68 µM.

As for `NC(=O)C1CCN(C(=O)CCn2c(=O)oc3ccccc32)CC1`, the IC90 is > 10 µM. In addition, under setting [1], the IC50 is > 10 µM.

Regarding `CN(CCO)C(=O)Nc1sc2c(c1C(N)=O)CCC2`, the IC90 is > 11.6 µM. Also, under setting [1], the IC50 is > 11.6 µM.

On to `O=C(c1c(-c2ccccc2)c2c3n(c(CN(C(=O)C4CC4)c4ccccc4)nn13)CCCC2)C1CC1`, for which the IC90 was > 10 µM. Besides, the IC50 (HEPG2TOX_HILL_SLOPE 2.64, HEPG2TOX_R_SQUARED 0.879, read-out: LUCIFERASE INFECTION ASSAY - IC50) was > 10 µM.

As for `Cc1nn(S(=O)(=O)c2ccc(-c3ccccn3)s2)c(C)c1Br`, the IC90 was > 8.29 µM. Besides, the 50% inhibitory concentration (IC50) under setting [1] was > 8.29 µM.

`N#CCCC(C#N)(c1ccc(F)cc1)c1cccc(F)c1C#N` (stereo not given): the IC90 was > 10.7 µM. In addition, the IC50 under setting [1] was > 10.7 µM.

Consider `FC(F)(F)c1cc(Nc2ncc(-c3ccc4c(c3)OCCCO4)s2)cc(C(F)(F)F)c1`, for which the IC90 is > 7.17 µM. Moreover, the IC50 under setting [1] was determined as 5.2 µM.

On to `CC1(C)CC(N2CCN(C(c3ccccc3)c3ccccc3)CC2)=CC(=[N+]2CCCCC2)C1`, for which the IC90 is 1.67 µM. For the same molecule, for the setting “HEPG2TOX_HILL_SLOPE 2.29, HEPG2TOX_R_SQUARED 0.813, PBLUC_HILL_SLOPE 10.9, PBLUC_R_SQUARED 0.679, read-out: LUCIFERASE INFECTION ASSAY - IC50”, the IC50 turned out to be 1.36 µM.

Regarding `NC(Cc1ccc(Cl)cc1)c1csc(Nc2ncccn2)n1` (stereo not given), the IC90 stood at 5.31 µM. The IC50 (HEPG2TOX_HILL_SLOPE 6.68, HEPG2TOX_R_SQUARED 0.347, PBLUC_HILL_SLOPE 658, PBLUC_R_SQUARED 0.395, read-out: LUCIFERASE INFECTION ASSAY - IC50) turned out to be 5.29 µM.

As for `CCOc1ccc(C=C(c2nc3ccccc3s2)c2nc3ccccc3s2)c(O)c1`, the IC90 was > 10 µM. For the same molecule, under setting [1], the IC50 was determined as 6.72 µM.

With `CNC(=O)c1csc(C(O)c2cccc(C(F)(F)F)c2)n1` (stereo not given), the IC90 came to 3.81 µM. For the setting “HEPG2TOX_HILL_SLOPE 1.87, HEPG2TOX_R_SQUARED 0.885, PBLUC_HILL_SLOPE 18.2, PBLUC_R_SQUARED 0.279, read-out: LUCIFERASE INFECTION ASSAY - IC50”, the IC50 stood at 3.38 µM.

Regarding `COc1cc(OC)cc(-c2cnc3cnc(-c4ccccc4C)cn23)c1`, the IC90 stood at 2.62 µM. Moreover, where the note is “HEPG2TOX_HILL_SLOPE 1.68, HEPG2TOX_R_SQUARED 0.933, PBLUC_HILL_SLOPE 2.21, PBLUC_R_SQUARED 0.835, read-out: LUCIFERASE INFECTION ASSAY - IC50”, the half-inhibitory concentration (IC50) was found to be 0.97 µM.

For `CCn1c(NC(=O)Cc2csc(-n3c(C)ccc3C)n2)nc2ccccc21`, the IC90 is > 10 µM. The IC50 (HEPG2TOX_HILL_SLOPE 6.15, HEPG2TOX_R_SQUARED 0.156, PBLUC_HILL_SLOPE 14.1, PBLUC_R_SQUARED 0.172, read-out: LUCIFERASE INFECTION ASSAY - IC50) was found to be 8.84 µM.

Turning to `COc1ccc2nc3[nH]nc(N)c3cc2c1`, the IC90 was > 10 µM. For the same molecule, the concentration for half-maximal inhibition (IC50) under setting [1] was > 10 µM.

`O=C1C=CC(=O)N1c1cccc(Cl)c1`: the IC90 is > 15.9 µM. Under setting [1], the IC50 is > 15.9 µM.

For `COc1ccc2[nH]cc(CCNC(=O)Nc3ccc(Cl)c(Cl)c3)c2c1`, the IC90 was > 8.72 µM. Moreover, the IC50 under setting [1] is > 8.72 µM.

As for `CCOC(=O)C1C(C)=NC2=C(C(=O)CC(c3ccc(F)cc3)C2)C1c1ccccc1C(F)(F)F` (stereo not given), the IC90 is > 6.97 µM. The IC50 (FFLUC_HILL_SLOPE 9.32, FFLUC_R_SQUARED 0.536, HEPG2TOX_HILL_SLOPE 7.97, HEPG2TOX_R_SQUARED 0.882, PBLUC_HILL_SLOPE 14, PBLUC_R_SQUARED 0.0949, read-out: LUCIFERASE INFECTION ASSAY - IC50) worked out at 6.64 µM.

For `CCOCCCn1c(SCc2nc(-c3cccs3)oc2C)nc2sc(C)c(C)c2c1=O`, the IC90 was > 10 µM. Further, the concentration for half-maximal inhibition (IC50) under setting [1] is > 10 µM.

`Cc1cc(/C=C(\C#N)c2nc3ccccc3n2C)c(C)n1-c1ccc(Cl)c(C(F)(F)F)c1`: the IC90 was > 10 µM. Moreover, under setting [1], the IC50 is > 10 µM.

In the case of `COCCNc1ccc(C(=O)NCCN2CCN(c3cccc(C)c3)CC2)cc1[N+](=O)[O-]`, the IC90 is > 10 µM. Also, the IC50 (PBLUC_HILL_SLOPE 2.05, PBLUC_R_SQUARED 0.556, read-out: LUCIFERASE INFECTION ASSAY - IC50) amounted to 6.29 µM.

On to `CCOc1ccccc1N/C=C1/C(=O)N(Cc2ccc3c(c2)OCO3)C(=O)c2ccccc21`, for which the IC90 is > 10 µM. In addition, the IC50 under setting [1] was > 10 µM.

Take `Cc1cc(C(=O)N/N=C/c2c(-c3ccccc3)nc3ccccn23)c(C)o1`: the IC90 was > 10 µM. The half-maximal inhibitory concentration (IC50) (PBLUC_HILL_SLOPE 2.6, PBLUC_R_SQUARED 0.44, read-out: LUCIFERASE INFECTION ASSAY - IC50) was 6.44 µM.

For the molecule `Cc1ccc(-n2c(C)cc(C(=O)Cn3nc(C)c(C)c(C#N)c3=O)c2C)cc1C`, the IC90 was > 10 µM. In addition, the IC50 (HEPG2TOX_HILL_SLOPE 1.5, HEPG2TOX_R_SQUARED 0.806, PBLUC_HILL_SLOPE 3.65, PBLUC_R_SQUARED 0.115, read-out: LUCIFERASE INFECTION ASSAY - IC50) came out at 9.8 µM.

Turning to `CC(C)(C)NC(=S)Nc1cc(C(F)(F)F)c(Cl)cc1Cl`, the IC90 is > 9.56 µM. Besides, the half-maximal inhibitory concentration (IC50) under setting [1] is > 9.56 µM.

On to `Oc1c(-c2cc(C(F)(F)F)[nH]n2)ccc2ccccc12`, for which the IC90 amounted to 4.29 µM. Also, for the setting “HEPG2TOX_HILL_SLOPE 2.58, HEPG2TOX_R_SQUARED 0.339, PBLUC_HILL_SLOPE 10.9, PBLUC_R_SQUARED 0.613, read-out: LUCIFERASE INFECTION ASSAY - IC50”, the IC50 amounted to 3.51 µM.

Turning to `O=C(Nc1ccc(F)c(Cl)c1)c1ccccc1O`, the IC90 was > 12.4 µM. Further, under setting [1], the half-maximal inhibitory concentration (IC50) was > 12.4 µM.

The record behind these values is ChEMBL document CHEMBL4483862, “Open-source discovery of chemical leads for next-generation chemoprotective antimalarials” (2018).
